Test results as given in patent US20260048101A1, “GLP-1R ANTAGONISM TO IMPROVE NUTRITION FOLLOWING GASTROINTESTINAL SURGERY” (Amylyx Pharmaceuticals, Inc., priority 2023, published 2026).

Test system: Patient 2 (total gastrectomy, severe hypoglycemia events)
Assay: Patient 2 case history: prior pharmacotherapy
Format: in vivo, human
Details: Patient 2, before trial participation
Text: The patient had been placed on a liquid diet for 6 weeks after surgery and had initially lost 20 lbs. but otherwise fared well in the immediate postoperative period. […] The meals caused pain, gastrointestinal symptoms, and frequent diarrhea (per patient report). The patient also complained of weakness, lethargy and general feeling of despondency. […] They began to experience severe hypoglycemia events, including multiple episodes of loss of consciousness with requirement for emergency medical assistance. […] The patient was referred for trial participation.

gastrointestinal symptoms: worsening of gastrointestinal symptoms
SMILES: C[C@H]1O[C@H](O[C@H]2[C@H](O)[C@@H](O)[C@@H](O[C@H]3[C@H](O)[C@@H](O)C(O)O[C@@H]3CO)O[C@@H]2CO)[C@H](O)[C@@H](O)[C@@H]1N[C@H]1C=C(CO)[C@@H](O)[C@H](O)[C@H]1O (stereo partly shown) [acarbose]
